Patent US12678413B2, “Compositions containing pterosin compound and derivatives thereof active ingredients for prevention or treatment of degenerative brain diseases” (priority 2017, dated 2026)
Like-named read-outs stand apart in the source and are kept apart here.

Columns and labels:
[1] = biological target: T1, butyrylcholinesterase (BChE) (Equus caballus, UniProt P81908); experiment: In vitro cholinesterase activity assay (Ellman), BChE; type: biochemical; settings: concentrations up to 125 μM; Mean ± SEM; read-out: IC50 Butyrylcholine esterase Mean ± SEM
T1 construct: horse serum butyrylcholinesterase (BChE, EC3.1.1.8); purchased Sigma-Aldrich Co. (St. Louis, MO, USA); host or cells: horse serum
T1 sequence (P81908 whole entry): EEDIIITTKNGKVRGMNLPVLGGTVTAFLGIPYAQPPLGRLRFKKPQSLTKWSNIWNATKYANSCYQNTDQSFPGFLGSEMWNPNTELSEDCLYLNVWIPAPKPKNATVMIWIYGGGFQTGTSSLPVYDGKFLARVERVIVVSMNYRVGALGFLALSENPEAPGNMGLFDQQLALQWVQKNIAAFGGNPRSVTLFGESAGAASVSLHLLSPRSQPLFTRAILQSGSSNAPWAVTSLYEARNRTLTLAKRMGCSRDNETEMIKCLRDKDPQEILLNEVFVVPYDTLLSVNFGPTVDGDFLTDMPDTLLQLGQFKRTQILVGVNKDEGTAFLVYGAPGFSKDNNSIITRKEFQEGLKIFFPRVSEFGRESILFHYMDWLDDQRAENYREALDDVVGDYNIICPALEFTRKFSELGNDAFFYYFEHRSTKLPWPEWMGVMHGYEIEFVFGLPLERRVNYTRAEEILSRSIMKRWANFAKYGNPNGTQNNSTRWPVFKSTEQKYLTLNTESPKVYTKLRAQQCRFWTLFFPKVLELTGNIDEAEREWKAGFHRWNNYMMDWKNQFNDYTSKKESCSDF
Experimental: (§1) The reaction started with the addition of 10 μL of DTNB and 10 μL of Ach or Bch.
(§2) Briefly, the basis for this assay is the hydrolysis of acetylthiocholine by acetylcholinesterase, producing thiocholine that reacts with DTNB. […] Degrees of inhibition were calculated according to […] wherein E and S represent enzyme activities in the presence and absence of a test sample, respectively.
(§3) The compounds of Table 1 were evaluated for anti-Alzheimer activity. In this regard, inhibitory activity against AChE (acetylcholinesterase) and BChE (butyrylcholinesterase), which lyse acetylcholine in the central nervous system, was measured according to the Experimental Method to calculate IC(inhibition concentrations)50 values.

B16F10 cells = experiment: MTT cytotoxicity assay, cancerous cell line B16F10; type: cell-based; settings: B16F10 mouse melanoma, 48 hours incubation
Experimental: (§4) The normal cell line NIH3T3 (mouse embryo fibroblast cell-line) and the cancerous cell line B16F10 (mouse melanoma cell-line) were separately grown in 96-well plates and incubated for 48 hours with predetermined concentrations of each of the compounds. After additional incubation with MTT, absorbance at 550 nm was read using a microplate reader. Absorbance is an index accounting for a number of viable cells and was used to calculate cell proliferation rates according to the following formula. All experiments were conducted three times for reproducibility. Cell proliferation rate (%)=OD550(sample)/OD550(control)
(§5) Then, LD50 (Lethal Dose 50) values were calculated on the basis of changes in the cell proliferation rate.

[2] = biological target: T2, acetylcholinesterase (AChE) (Electrophorus electricus, UniProt O42275); experiment: In vitro cholinesterase activity assay (Ellman), AChE; type: biochemical; settings: for SI: selectivity index (BChE/AChE): ratio of IC50 BChE/AChE
T2 construct: purchased Sigma-Aldrich Co. (St. Louis, MO, USA)
T2 sequence (O42275 24-633): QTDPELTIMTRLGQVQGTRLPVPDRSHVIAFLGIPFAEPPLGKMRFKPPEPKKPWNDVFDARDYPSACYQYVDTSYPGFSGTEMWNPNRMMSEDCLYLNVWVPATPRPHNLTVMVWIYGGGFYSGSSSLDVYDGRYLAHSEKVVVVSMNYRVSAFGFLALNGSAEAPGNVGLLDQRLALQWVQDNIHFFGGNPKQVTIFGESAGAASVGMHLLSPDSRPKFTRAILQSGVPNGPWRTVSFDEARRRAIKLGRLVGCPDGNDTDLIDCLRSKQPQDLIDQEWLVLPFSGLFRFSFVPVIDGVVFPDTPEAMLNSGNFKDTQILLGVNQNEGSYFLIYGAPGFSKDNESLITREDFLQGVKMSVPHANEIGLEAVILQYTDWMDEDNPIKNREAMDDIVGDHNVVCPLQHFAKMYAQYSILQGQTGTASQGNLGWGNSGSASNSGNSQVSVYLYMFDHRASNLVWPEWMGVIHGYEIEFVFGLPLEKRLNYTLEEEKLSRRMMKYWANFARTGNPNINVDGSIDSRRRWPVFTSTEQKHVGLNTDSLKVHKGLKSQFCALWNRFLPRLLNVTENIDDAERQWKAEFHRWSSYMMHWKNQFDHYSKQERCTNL
Experimental: as §1, §2, §3

[3] = biological target: T2, acetylcholinesterase (AChE); experiment: AChE enzyme kinetics (Dixon plot and Lineweaver plot); type: biochemical
Experimental: as §1, §2

NIH3T3 cells = experiment: MTT cytotoxicity assay, normal cell line NIH3T3; type: cell-based; settings: NIH3T3 mouse embryo fibroblast, 48 hours incubation
Experimental: as §4, §5

BACE1 = biological target: T3, BACE1 (Homo sapiens, UniProt P56817); experiment: BACE1 enzyme kinetics (Dixon plot and Lineweaver plot); type: biochemical
T3 construct: purchased Pan Vera Co. (Madison, WI, USA)
T3 sequence (P56817 46-501): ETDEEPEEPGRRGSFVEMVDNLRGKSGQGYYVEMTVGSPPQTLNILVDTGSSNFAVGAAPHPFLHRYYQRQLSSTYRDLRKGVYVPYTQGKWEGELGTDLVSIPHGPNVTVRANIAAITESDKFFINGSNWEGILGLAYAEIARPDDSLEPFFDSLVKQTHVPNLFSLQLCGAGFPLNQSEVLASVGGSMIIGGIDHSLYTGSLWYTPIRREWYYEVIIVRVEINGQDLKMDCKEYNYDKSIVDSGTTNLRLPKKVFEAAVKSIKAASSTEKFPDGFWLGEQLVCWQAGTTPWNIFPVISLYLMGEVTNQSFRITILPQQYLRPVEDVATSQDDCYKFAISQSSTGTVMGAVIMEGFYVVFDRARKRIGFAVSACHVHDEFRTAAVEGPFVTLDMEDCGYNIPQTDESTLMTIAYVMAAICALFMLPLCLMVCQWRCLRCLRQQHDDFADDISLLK
Experimental: A BACE1 fluorescence resonance energy transfer (FRET) assay kit (β-secretase, recombinant human enzyme) was purchased from Pan Vera Co. (Madison, WI, USA). The assay was carried out according to the manual provided, with a modification made thereto as described by Jung et al. (Jung et al., Biol Pharm Bull, 2010, 33:267-272). Quercetin was used as a positive control.
In addition, an enzyme kinetics experiment was conducted using the Lineweaver plot and Dixon plot (see FIG. 7) in order to examine the BACE1 inhibition mechanism of the novel compound (Compound 2). […] The results of the experiment indicate that the novel compound of the present disclosure is a very potent inhibitor against BACE1.

[4] = biological target: T1, butyrylcholinesterase (BChE); experiment: BChE enzyme kinetics (Dixon plot and Lineweaver plot); type: biochemical
Experimental: as §1, §2

[5] = biological target: T4, BACE1 (β-secretase, recombinant human enzyme) (Homo sapiens, UniProt P56817); experiment: In vitro BACE1 activity assay (FRET kit); type: biochemical; settings: compounds in 10% DMSO, concentrations up to 125 μM
T4 construct: purchased Pan Vera Co. (Madison, WI, USA)
T4 sequence (P56817 46-501): as above
Description: BACE1 (beta-secretase) FRET assay kit was purchased from Pan Vera Co. (Madison, WI, USA). All the chemicals and solvents used in column chromatography were of reagent grade and were used as received without further purification.
A BACE1 fluorescence resonance energy transfer (FRET) assay kit (β-secretase, recombinant human enzyme) was purchased from Pan Vera Co. (Madison, WI, USA).
BACE1 is an enzyme promotive of the production of β-amyloid, which destroys neurons. In order to examine the effects on the compounds of Table 1 on the activity of BACE1, IC(inhibition concentrations)50 values were determined by measuring BACE1 activity in vitro according to Experimental Methods.

Structure (SMILES)	IC50 [1] [µM]	LD50 Cancer cell B16F10 (B16F10 cells)	SI: selectivity index (BChE/AChE) [2]	Inhibition type Acetylcholinesterase [3]	Inhibition type Acetylcholinesterase ([3]; listed as (2R)-Pteroside B)	LD50 Normal cell NIH3T3 (NIH3T3 cells)	Inhibition type BACE1 (BACE1)	Ki (BACE1) [µM]	Inhibition type BACE1 (BACE1; listed as (2R)-Pteroside B)	Inhibition type Butyrylcholinesterase [4]	Inhibition type Butyrylcholinesterase ([4]; listed as (2R)-Pteroside B)	IC50 [5] [µM]	IC50 ([2]; concentrations up to 125 μM, Mean ± SEM, read-out: IC50 Acetylcholine Esterase Mean ± SEM) [µM]
Cc1cc2c(c(C)c1CCO[C@@H]1OC(CO)[C@@H](O)[C@H](O)C1O)C(=O)[C@H](C)C2 (stereo partly drawn) [Compound 14, (2R)-pteroside B]	17.6 ± 3.1	>5,000 μM	6.9	mixed type	Mixed-type	>5,000 μM	noncompetitive type	72.5	Noncompetitive	mixed type	Mixed-type	43.4 ± 3	–
Cc1cc2c(c(C)c1CCO[C@@H]1OC(CO)[C@@H](O)C(O)C1O)C(=O)[C@](C)(O)C2 (single isomer, unassigned; (-)) [Compound 18, (−)-pteroside N]	7.39 ± 0.99	>5,000 μM	1.7	–	–	>5,000 μM	–	–	–	–	–	30.6 ± 1.8	4.47 ± 0.29
